Data on 37 molecules can be found in PubChem BioAssay AID2202555 (NIEHS Division of Translational Toxicology (DTT)).

Records with an inconclusive call do not appear. Activity calls are given as the source filed them. No rule for the calls is given here.

The first data set concerns rat and mouse 2-year carcinogenicity bioassay, tumor evidence. In words: Consolidated carcinogenicity assay summary data. The conditions noted are these: Route (rodents): Dosed feed.
As to `Nc1cc(Cl)cc(C(=O)O)c1Cl`, the carcinogen call was “active; no evidence”.

`OCC(CO)(CBr)CBr`: the carcinogen call was “active; clear evidence”. Same read-out and setting: to `O=C1C2CC=CCC2C(=O)N1SC(Cl)(Cl)Cl` (configuration not stated) belongs “active; no evidence”; to `c1ccc(N=Nc2ccccc2)cc1`, “active; clear evidence”; to `Nc1ccccc1C(=O)OCC=Cc1ccccc1`, “active; clear evidence”. Same read-out and setting: with `N#Cc1c(Cl)c(Cl)c(Cl)c(C#N)c1Cl` the entry was “active; clear evidence”; with `COc1ccc([N+](=O)[O-])cc1N`, “active; clear evidence”; with `Nc1nc(N)c2nc(-c3ccccc3)c(N)nc2n1`, “active; equivocal evidence”.

Regarding `CN(C)c1ccc(C(=O)c2ccc(N(C)C)cc2)cc1`, the carcinogen call is “active; clear evidence”. On the same count and under the same terms, to `COc1cc(-c2ccc(N=C=O)c(OC)c2)ccc1N=C=O` belongs “active; clear evidence”; to `Oc1c(Cl)c(Cl)c(Cl)c(Cl)c1Cl`, “active; some evidence”. Same read-out and setting: to `O=C(O)c1ccc([N+](=O)[O-])cc1` belongs “active; no evidence”.

For the molecule `Nc1ccc(Sc2ccc(N)cc2)cc1`, the carcinogen call was “active; clear evidence”.

`Nc1ccc(Oc2ccc(N)cc2)cc1`: the carcinogen call is “active; clear evidence”. Regarding `O=P(OCC(Br)CBr)(OCC(Br)CBr)OCC(Br)CBr` (configuration not stated), the carcinogen call was “active; clear evidence”.

Still in this data set, the particulars now being: Route (rodents): Dosed water.
For `C1COCCO1`, the carcinogen call was “active; clear evidence”. The same measure, in the same setting: with `Nc1ccc(Cc2ccc(N)cc2)cc1` the entry was “active; clear evidence”.

Still in this data set, the particulars now being: Route (rodents): Gavage.
As to `Nc1ccc(O)c(N)c1`, the carcinogen call is “active; no evidence”. The same measure, in the same setting: with `ClCC(Cl)Cl` the entry was “active; no evidence”. Same read-out and setting: to `c1ccccc1` belongs “active; clear evidence”; to `S=c1[nH]c2ccccc2s1`, “active; some evidence”; to `C=CCc1ccc(OC)c(OC)c1`, “active; clear evidence”.

In the case of `C=CC#N`, the carcinogen call was “active”.

Still in this data set, the particulars now being: Route (rodents): Gavage; Second Route: Dosed Feed.
For the molecule `CC(=O)OCc1ccccc1`, the carcinogen call was “active; equivocal evidence”.

The data set is the same for the next values; noted with them: Route (rodents): Gavage; Second Route: Topical.
Turning to `Clc1cc2c(cc1Cl)Oc1cc(Cl)c(Cl)cc1O2`, the carcinogen call was “active; clear evidence”.

The data set is the same for the next values; noted with them: Route (rodents): Inhalation.
Turning to `C1CCC2CCCCC2C1` (configuration not stated), the carcinogen call is “active; clear evidence”. Regarding `C=CC(=C)Cl`, the carcinogen call was “active; clear evidence”. Same read-out and setting: with `CCBr` the entry was “active; some evidence”; with `[P]#[In]`, “active; clear evidence”. Still for that read-out and setting: to `[O]=[Mo](=[O])=[O]` belongs “active; equivocal evidence”; to `CC(=O)C(C)=O`, “active; some evidence”.

The same data set, now with this note: Route (rodents): Interperitoneal.
For the molecule `Nc1nc(=S)c2ncn([C@H]3C[C@H](O)[C@@H](CO)O3)c2[nH]1`, the carcinogen call was “active; equivocal evidence”. For `Nc1ncn([C@@H]2O[C@H](CO)[C@@H](O)[C@H]2O)c(=O)n1`, the carcinogen call was “active; inadequate study”.

Staying with this data set, now noted: Route (rodents): Topical.
With `OCCNCCO`, the carcinogen call is “active; no evidence”. Consider `Oc1cccc(O)c1O`, for which the carcinogen call is “active; no evidence”. Still for that read-out and setting: with `OCC(Br)CBr` (configuration not stated) the entry was “active; clear evidence”; with `C1CC2OC2CC1C1CO1` (configuration not stated), “active; clear evidence”.
